The source made the active and inactive calls.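 How the source made its calls: active means compounds giving half or more protection of infected cells from virus-caused growth loss, again on retest; inactive means the rest.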 Where a SMILES comes first, the peptide text is derived from it.
System: CEM cells HIV-1 protection, formazan growth assay
Experiment: NCI AIDS Antiviral Assay
Details: for IC50: measured here: growth of uninfected CEM cells
Summary of the method: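 Steps: treat uninfected and HIV-1-infected human CEM cells at five drug levels; quantify growth by soluble formazan; retest any compound reaching 50% protection; classify actives from the retest.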

| SMILES | EC50 | IC50 | outcome |
| --- | --- | --- | --- |
| Nc1nc2c(c(=O)[nH]1)C(c1ccccc1)CC(=O)N2 (centres undefined) | > 200 µM | > 200 µM |  |
| O=C(O)c1ccc([C@@H]2C(=O)N(O)[C@@H]3C=CC[C@@H]32)cc1 | > 347 µM | > 347 µM |  |
| NC(=O)NCCCC(NC(=O)OCCCCCn1ccc(=O)[nH]c1=O)C(=O)O (centres undefined) | > 100 µM | > 100 µM |  |
| CC(O)C(NC(=O)C(CCCCN)NC(=O)C(CC(=O)O)NC(=O)C(N)Cc1ccccc1)C(=O)NC(CO)C(=O)NC(CC(N)=O)C(=O)NC(CO)C(=O)N1CCCC1C(=O)NC(Cc1ccc(O)cc1)C(=O)NC(Cc1cnc[nH]1)C(=O)NC(Cc1ccccc1)C(=O)O (centres undefined) (H-FDKTSNSPYHF-OH; configuration not given here) | > 46.8 µM | > 46.8 µM |  |
| CCCCCCCCCCCCOS(=O)(=O)O | > 871 µM | 195 µM |  |
| O=C(c1ccc(Cl)cc1)c1cc2c([nH]c1=O)CCCCC2 |  |  | inactive |
| COC(=O)C(C(=O)C(=O)Nc1cccc(O)c1)c1nc2ccc(Cl)cc2[nH]c1=O (centres undefined) | > 87.1 µM | 85.1 µM |  |
| O=C(NC12CC3CC(CC(F)(C3)C1)C2)c1ccccc1 | > 132 µM | 52.5 µM |  |
| O=S(=O)(O)c1cc2onnc2c2ccccc12 | > 1000 µM | 525 µM |  |
| Nc1nc(Cl)nc2c1ncn2C1CC(O)C(CO)O1 (centres undefined) | > 631 µM | 3.09 µM |  |
| Nc1nc(Cl)cc(NCC2(CO)CCC(OCc3ccccc3)C2)n1 (centres undefined) | 14.5 µM | 17.8 µM |  |
| C/C=C1\CN(C)C2Cc3c([nH]c4ccccc34)[C@H](c3c(OC)ccc4c5c([nH]c34)C3(C(=O)OC)CC4CC(CC)C3N(CC5)C4)CC1C2C(=O)OC (some centres undefined) |  |  | inactive |
| O=S(=O)(OC(=C(c1ccccc1)c1ccccc1)c1ccccc1)C(F)(F)F | > 17.8 µM | > 17.8 µM |  |
| C#CCN(C(=O)C(F)(F)F)C(/C=C\C(=O)OC)(C(=O)OCC)C(=O)OCC | > 200 µM | 83.2 µM |  |
| CC(C)[Si](OC1=CCC[C@H]2NC(=O)[C@@H](Cc3ccc([N+](=O)[O-])cc3)[C@@]12C)(C(C)C)C(C)C | > 200 µM | 20.4 µM |  |
| Cc1cc(=O)c(C#N)c2c(C#N)c(N)[nH]n12 | > 200 µM | > 200 µM |  |
| N#CC(C#N)=Cn1c(=S)[nH]c2ccccc21 | > 200 µM | > 200 µM |  |
| CCCCCCCCCCCCCCCCOC1N(C2CC(N=[N+]=[N-])C(CO)O2)C(=O)NC(=O)[C@]1(C)Br (some centres undefined) | > 200 µM | 11 µM |  |
| COC(=O)C1CC(C(=O)OC)c2nc3cc([N+](=O)[O-])ccc3nc21 (centres undefined) | > 151 µM | 61.7 µM |  |

| SMILES | EC50 | IC50 | outcome |
| --- | --- | --- | --- |
| O=C1CCCN(Cc2ccccc2)C(=O)N1 | > 1150 µM | > 1150 µM |  |
| CC(=O)NNc1nc(C)c(C(=O)/C=C/c2ccc(N(C)C)cc2)s1 | > 55 µM | > 55 µM |  |
| COP(=O)(OC)C(NC(=O)C(F)(F)F)(c1ccccc1)C(F)(F)F (centres undefined) | > 200 µM | > 200 µM |  |
| O=C(N[C@H]1CCC[C@H]1C(=O)Nc1ccc(C(F)(F)F)cc1)OCc1ccccc1 | > 200 µM | > 200 µM |  |
| COc1cc(C2c3cc4c(cc3OC(NNS(=O)(=O)c3ccc(C)cc3)C2C)OCO4)cc(OC)c1OC (centres undefined) | > 20 µM | 0.372 µM |  |
| Cc1ccc(/C=C/C(=O)c2sc(-c3nc(C)c(C(=O)/C=C/c4ccc(C)cc4)s3)nc2C)cc1 | > 38.9 µM | > 38.9 µM |  |
| COC(=O)C1C(=O)C(C(=O)OC)C2(C)C(C(=O)OC)C(=O)C(C(=O)OC)C12 (centres undefined) | > 468 µM | > 468 µM |  |
| COc1cc2c(cc1OCCCCN1C(=O)c3cccc4cccc(c34)C1=O)N=C[C@@H]1CCCN1C2=O | > 200 µM | 3.47 µM |  |
| CCOC(=O)c1c(C)c(=O)cnc2c(C#N)cnn12 | > 115 µM | > 115 µM |  |
| Cc1cc(S(=O)(=O)NC2=NCCN2Cc2ccccc2)c(S)cc1Cl | > 200 µM | 58.9 µM |  |
| O=[N+]([O-])C[C@@]12O[C@]3(O)C4C5CC(C6C5C3C61)C42 (some centres undefined) | > 200 µM | > 200 µM |  |
| NNC(=O)CCc1c[nH]c2ccccc12 | > 1230 µM | 661 µM |  |
| O=C(c1ccccc1)C(SSC(C(=O)c1ccccc1)C(=O)c1ccccc1)C(=O)c1ccccc1 | > 200 µM | 17.4 µM |  |
| COc1cc(C(O)C(=O)c2nc3ccc([N+](=O)[O-])cc3[nH]c2=O)ccc1O (centres undefined) | > 251 µM | > 251 µM |  |
| CC(=O)C1C(=O)C(=O)N(c2ccc([N+](=O)[O-])cc2)C1=O (centres undefined) | > 200 µM | > 200 µM |  |
| COc1ccc(NC(=O)/N=C2\CN(C(=O)c3c(F)cccc3F)C(=O)N2c2ccc(OC)cc2)cc1 | > 200 µM | 129 µM |  |
| COC=C(c1cc(Br)c(OC)c(C(=O)OC)c1)c1cc(Br)c(OC)c(C(=O)OC)c1 | > 200 µM | 13.5 µM |  |
| CCCCNC(=NCc1ccccc1)NC#N | > 407 µM | 295 µM |  |
| O=C1CCCc2cc3c(cc21)CC1(Cc2ccccc2C1)C3 | > 200 µM | 1.29 µM |  |
